Columns and labels:
[1] = tested on: Olfr160; test: OR transcript level by RT-qPCR after in vivo odorant exposure; set-up: species or system mouse; key to olfr160 candidate OR (RNAseq) confirmed by qPCR: The transcript downregulation of 21 out of the 26 olfactory receptor candidates obtained by RNAseq was confirmed by qPCR; false RNAseq positive candidates, namely OR candidates for which in fact mRNA was not downregulated following acetophenone exposure; settings: for Olfr160 mRNA level relative to unexposed controls: 5% odorant, 5 hours, in vivo, RT-qPCR
Method: (§1) In vivo exposure to odorant: Starting 48 h before experiments, mice were habituated to pure DMSO on a cotton ball. 200 μl were pipetted directly onto the cotton and placed in the cage, replacing any cotton that was already in the cage for nest-making purposes.
(§2) On the day of the experiment, mice receiving odorants were transferred to a different room, where they were exposed to a cotton ball on which 200 μl of odorant diluted in pure DMSO were deposited. Exposures started in the morning between 8 and 10 am (that is two hours after lights were on) and mice were killed and dissected between 1 and 3 pm. […] If a number of different odorants were tested in the same experiment, a different overpressurized room would always be used for each odorant to avoid odor cross-contamination.
(§3) After odorant exposure, mice were killed by cervical dislocation and immediately decapitated. The main olfactory epithelia (MOE), were harvested in their entirety and transferred to a tube containing 600 μl of lysis buffer and β-mercaptoethanol (RNAeasy kit, Qiagen, following the manufacturer protocol) and a 0.5 cm diameter steel ball, and then put on ice. Samples were then homogenized using a FastPrep®-24 instrument (MP Biomedicals) at 6 m/s for 30 s and left on ice. RNA extraction was performed on all samples in parallel using the Qiagen RNeasy Mini® kit following the manufacturer's instructions. Two DNase treatments were performed on all samples: first using the Qiagen RNase-Free DNase Set® and then using the Life Technologies Ambion DNase I® kit. RNA samples were then aliquoted and stored at −80° C.
(§4) RNA concentrations were determined using an Amersham Ultrospec® 3100 Pro spectrophotometer, and RNA quality was evaluated with an Agilent Technologies 2100 Bioanalyzer®. […]
(§5) qPCR Ct values were analyzed using an in-house developed Microsoft Excel® macro file. […] Ct values were converted to quantities relative to the maximum for each given gene. Selected reference genes were then analyzed for variance using the geNorm algorithm. […]

[2] = tested on: Olfr1178; test: as above; set-up: species or system mouse; settings: 5% odorant, 5 hours
Method: as §1
On the day of the experiment, mice receiving odorants were transferred to a different room, where they were exposed to a cotton ball on which 200 μl of odorant diluted in pure DMSO were deposited. Exposures started in the morning between 8 and 10 am (that is two hours after lights were on) and mice were killed and dissected between 1 and 3 pm. […]
as §4, §5
Adult C57BL/6 mice were exposed to 5% acetophenone for 5 hours, and the level of transcripts of odorant receptors' genes were measured by RT-qPCR on extracts of olfactory epithelia from these mice, as described in the materials and methods section.

[3] = tested on: olfr109; test: as above; set-up: species or system mouse; key: The transcript downregulation of 21 out of the 26 olfactory receptor candidates obtained by RNAseq was confirmed by qPCR; false RNAseq positive candidates, namely OR candidates for which in fact mRNA was not downregulated following acetophenone exposure; settings: 5% acetophenone exposure
Method: as §1, §2, §3
(§6) RNA concentrations were determined using an Amersham Ultrospec® 3100 Pro spectrophotometer, and RNA quality was evaluated with an Agilent Technologies 2100 Bioanalyzer®. Each reverse transcription was performed with 0.5 μg RNA using the Takara Primescript® kit, in a final volume of 10 μl. Primers for reverse transcription were equal mixtures of poly-T nucleotides and random hexamers. Negative controls (omitting the reverse transcriptase enzyme) were performed for each sample. 1/14th of the cDNA preparation was used for each triplicated qPCR reaction.
(§7) qPCR Ct values were analyzed using an in-house developed Microsoft Excel® macro file. Triplicate values were compared and outliers (values with a difference higher than 0.5 Ct to their nearest neighbor) were discarded. The number of conditions with an outlying value was always less than 10% of the total number of conditions. Ct values were converted to quantities relative to the maximum for each given gene. Selected reference genes were then analyzed for variance using the geNorm algorithm. All values were normalized with the olfactory tissue-specific genes Omp and Adcy3. β-Actin was used as a non-tissue-specific reference gene to control for differences in dissection between samples.
(§8) Mice (n=6) were exposed to 5% acetophenone or to a “neutral” control condition for 5 hours. An olfactory cDNA library corresponding to each animal was deep sequenced and the ratios of odorant receptor mRNA concentrations relative to controls were plotted (FIG. 3). […] Based on transcriptional downregulation levels observed by RNAseq following acetophenone exposure, a list of 26 candidate responsive ORs was determined (FIG. 3), that reached 74% decrease (Olfr145) or even over 80% (Olfr169) relative to controls. […] The transcript downregulation of 21 out of the 26 olfactory receptor candidates obtained by RNAseq was confirmed by qPCR.

[4] = tested on: olfr901; test: as above; set-up: species or system mouse; key: The transcript downregulation of 21 out of the 26 olfactory receptor candidates obtained by RNAseq was confirmed by qPCR; false RNAseq positive candidates, namely OR candidates for which in fact mRNA was not downregulated following acetophenone exposure; settings: 5% acetophenone exposure
Method: as §1, §2, §3, §6, §7, §8

[5] = tested on: olfr1448; test: as above; set-up: species or system mouse; key: The transcript downregulation of 21 out of the 26 olfactory receptor candidates obtained by RNAseq was confirmed by qPCR; false RNAseq positive candidates, namely OR candidates for which in fact mRNA was not downregulated following acetophenone exposure; settings: 5% acetophenone exposure
Method: as §1, §2, §3, §6, §7, §8

[6] = tested on: olfr750; test: as above; set-up: species or system mouse; key: The transcript downregulation of 21 out of the 26 olfactory receptor candidates obtained by RNAseq was confirmed by qPCR; false RNAseq positive candidates, namely OR candidates for which in fact mRNA was not downregulated following acetophenone exposure; settings: 5% acetophenone exposure
Method: as §1, §2, §3, §6, §7, §8

[7] = tested on: olfr736; test: as above; set-up: species or system mouse; key: The transcript downregulation of 21 out of the 26 olfactory receptor candidates obtained by RNAseq was confirmed by qPCR; false RNAseq positive candidates, namely OR candidates for which in fact mRNA was not downregulated following acetophenone exposure; settings: 5% acetophenone exposure
Method: as §1, §2, §3, §6, §7, §8

[8] = tested on: olfr1501; test: as above; set-up: species or system mouse; key: The transcript downregulation of 21 out of the 26 olfactory receptor candidates obtained by RNAseq was confirmed by qPCR; false RNAseq positive candidates, namely OR candidates for which in fact mRNA was not downregulated following acetophenone exposure; settings: 5% acetophenone exposure
Method: as §1, §2, §3, §6, §7, §8

[9] = tested on: olfr935; test: as above; set-up: species or system mouse; key: The transcript downregulation of 21 out of the 26 olfactory receptor candidates obtained by RNAseq was confirmed by qPCR; false RNAseq positive candidates, namely OR candidates for which in fact mRNA was not downregulated following acetophenone exposure; settings: 5% acetophenone exposure
Method: as §1, §2, §3, §6, §7, §8

[10] = tested on: Olfr160; settings: dissociated neurons; previously shown; read-out: EC50 as agonist of Olfr160; cited from earlier work

For `CC(=O)c1ccccc1` [acetophenone], the “olfr160 candidate OR (RNAseq) confirmed by qPCR” value ([1]; 5% acetophenone exposure) was “y”, the “Olfr160 mRNA level relative to unexposed controls” value [1] was “decrease” and the “Olfr160 mRNA level relative to unexposed controls” value ([1]; listed as Acetophenone) was “downregulates”. The “Olfr1178 mRNA concentration increase, fold change” value [2] was 1.5 fold, the “olfr109 candidate OR (RNAseq) confirmed by qPCR” value [3] was “y” and the “olfr901 candidate OR (RNAseq) confirmed by qPCR” value [4] was “y”. For the same molecule, the “olfr1448 candidate OR (RNAseq) confirmed by qPCR” value [5] was “y”, the “olfr750 candidate OR (RNAseq) confirmed by qPCR” value [6] was “n” and the “olfr736 candidate OR (RNAseq) confirmed by qPCR” value [7] was “y”. For the same molecule, the “olfr1501 candidate OR (RNAseq) confirmed by qPCR” value [8] was “y”, the “olfr935 candidate OR (RNAseq) confirmed by qPCR” value [9] was “y” and the EC50 [10] was under 50 µM.

Reference: patent US10473645B2, “Methods for identifying a receptor for a ligand and uses thereof” (UNIVERSITE DE GENEVE, priority 2014, dated 2019)
